Test results: ChEMBL document CHEMBL5042543, “Bridged Piperidine Analogues of a High Affinity Naphthalene-Based P2Y14R Antagonist” (J Med Chem, 2022)
≈ marks a conversion by molar mass, not a printed value. Calls of active or inactive are those of the source. No cut-off for these calls is given here.

Tests used:
Mus musculus [1] = test: Antiinflammatory activity in C57BL/6J mouse model of ovalbumin/Aspergillus-induced allergic asthma assessed as reduction in recruitment of eosinophils into airway at 10 mg/kg, ip administered 30 mins prior to allergen challenge and measured after 16 days; format: functional, organism-based; conditions: time 16.0 day
[2] = Prodrug conversion in aqueous medium at pH 7.4 assessed as conversion of 4-(4-((1S,4S,5S)-2-(Ethoxycarbonyl)-2-azabicyclo[2.2.1]heptan-5-yl)phenyl)-7-(4-(trifluoro-methyl)phenyl)-2-naphthoic acid at 72 hrs by HPLC analysis; format: ADME; conditions: buffer, pH 7.4, 72 h
[3] = Distribution coefficient, logD of compound at pH 7.4 by HPLC analysis; format: physicochemical; conditions: octanol/water
liver carboxylesterase = target: T1, liver carboxylesterase (Sus scrofa, UniProt Q29550); test: Stability of the compound in aqueous medium at pH 7.4 assessed as half life in presence of porcine liver esterase; format: physicochemical; conditions: pig
T1 sequence (Q29550 whole entry): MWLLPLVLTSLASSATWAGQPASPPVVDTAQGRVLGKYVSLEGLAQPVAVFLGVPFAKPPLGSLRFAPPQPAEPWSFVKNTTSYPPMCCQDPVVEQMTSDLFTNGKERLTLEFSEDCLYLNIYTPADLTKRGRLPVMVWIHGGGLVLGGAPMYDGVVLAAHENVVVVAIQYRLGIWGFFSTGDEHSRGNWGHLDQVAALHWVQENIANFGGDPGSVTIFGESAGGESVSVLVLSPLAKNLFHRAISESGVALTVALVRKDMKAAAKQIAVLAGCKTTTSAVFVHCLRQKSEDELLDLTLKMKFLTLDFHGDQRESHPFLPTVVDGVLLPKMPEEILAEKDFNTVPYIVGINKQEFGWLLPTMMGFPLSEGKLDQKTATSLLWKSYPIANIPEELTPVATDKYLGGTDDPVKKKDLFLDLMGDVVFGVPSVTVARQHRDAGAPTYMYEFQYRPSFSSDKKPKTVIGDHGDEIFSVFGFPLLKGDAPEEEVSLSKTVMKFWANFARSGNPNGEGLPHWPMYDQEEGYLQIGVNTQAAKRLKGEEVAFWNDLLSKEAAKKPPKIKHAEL

Mus musculus [4] = test: Antiinflammatory activity in C57BL/6J mouse model of ovalbumin/Aspergillus-induced allergic asthma assessed as reduction in recruitment of lymphocytes into airway at 10 mg/kg, ip administered 30 mins prior to allergen challenge and measured after 16 days; format: functional, organism-based; conditions: time 16.0 day
Mus musculus [5] = test: Antiinflammatory activity in C57BL/6J mouse model of ovalbumin/Aspergillus-induced allergic asthma assessed as reduction in recruitment of neutrophils into airway at 10 mg/kg, ip administered 30 mins prior to allergen challenge and measured after 16 days; format: functional, organism-based; conditions: time 16.0 day
[6] = Plasma protein binding in human assessed as bound fraction; format: ADME, cell-free
[7] = Plasma protein binding in rat assessed as compound remaining at 5 hrs; format: ADME, cell-free
[8] = target: Sigma non-opioid intracellular receptor 1 (Homo sapiens, UniProt Q99720); test: Inhibition of sigma 1 receptor (unknown origin) assessed as binding constant
Sequence of Sigma non-opioid intracellular receptor 1 (Q99720 whole entry): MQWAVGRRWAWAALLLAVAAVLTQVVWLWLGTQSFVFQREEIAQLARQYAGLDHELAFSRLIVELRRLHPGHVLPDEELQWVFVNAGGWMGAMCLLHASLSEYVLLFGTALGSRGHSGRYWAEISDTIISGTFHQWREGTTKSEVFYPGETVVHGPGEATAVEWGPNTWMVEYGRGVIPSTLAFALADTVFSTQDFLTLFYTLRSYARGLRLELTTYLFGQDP

[9] = Plasma protein binding in mouse assessed as compound remaining at 5 hrs; format: ADME, cell-free
Translocator protein = Translocator protein (Homo sapiens, UniProt P30536); test: Inhibition of TSPO receptor (unknown origin) assessed as binding constant
Sequence of Translocator protein (P30536 whole entry): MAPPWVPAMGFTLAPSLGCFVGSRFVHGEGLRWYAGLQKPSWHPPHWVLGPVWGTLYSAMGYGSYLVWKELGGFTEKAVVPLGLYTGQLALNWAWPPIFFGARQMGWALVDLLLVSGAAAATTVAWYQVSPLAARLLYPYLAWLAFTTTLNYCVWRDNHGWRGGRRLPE

[10] = target: Sigma intracellular receptor 2 (Homo sapiens, UniProt Q5BJF2); test: Inhibition of sigma 2 receptor (unknown origin) assessed as binding constant
Sequence of Sigma intracellular receptor 2 (Q5BJF2 whole entry): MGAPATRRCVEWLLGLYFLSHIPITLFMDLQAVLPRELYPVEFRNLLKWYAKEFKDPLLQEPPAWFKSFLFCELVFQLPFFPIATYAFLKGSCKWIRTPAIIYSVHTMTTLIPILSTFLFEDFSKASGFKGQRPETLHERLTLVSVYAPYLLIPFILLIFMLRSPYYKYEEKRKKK

P2Y purinoceptor 14 = target: T2, P2Y purinoceptor 14 (Mus musculus, UniProt Q9ESG6); test: Inhibition of fluorescent antagonist binding to mouse P2Y14R expressed in HEK293 cells preincubated for 30 mins followed by addition of 6-amino-9-(2-carboxy-4-((6-(4-(4-(4-(4-(3-carboxy-6-(4-(trifluoromethyl)phenyl)naphthalen-1-yl)phenyl)piperidin-1-yl)butyl)-1H-1,2,3-triazol-1-yl)hexyl)carbamoyl)phenyl)-3-iminio-5-sulfo-3H-xanthene-4-sulfonate incubated for 30 mins by BD FACSCalibur flow …; format: cell-based
T2 sequence (Q9ESG6 whole entry): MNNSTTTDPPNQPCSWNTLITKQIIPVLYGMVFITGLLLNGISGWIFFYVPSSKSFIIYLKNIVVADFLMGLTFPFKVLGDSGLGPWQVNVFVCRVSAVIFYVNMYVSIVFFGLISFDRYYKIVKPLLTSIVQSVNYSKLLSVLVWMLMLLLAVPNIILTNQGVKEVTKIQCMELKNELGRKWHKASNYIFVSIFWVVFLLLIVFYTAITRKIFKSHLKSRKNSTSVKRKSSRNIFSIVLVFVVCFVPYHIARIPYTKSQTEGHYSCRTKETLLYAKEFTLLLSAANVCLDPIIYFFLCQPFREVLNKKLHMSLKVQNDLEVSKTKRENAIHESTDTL

D(3) dopamine receptor = D(3) dopamine receptor (Homo sapiens, UniProt P35462); test: Inhibition of dopamine D3 receptor (unknown origin) assessed as binding constant
Sequence of D(3) dopamine receptor (P35462 whole entry): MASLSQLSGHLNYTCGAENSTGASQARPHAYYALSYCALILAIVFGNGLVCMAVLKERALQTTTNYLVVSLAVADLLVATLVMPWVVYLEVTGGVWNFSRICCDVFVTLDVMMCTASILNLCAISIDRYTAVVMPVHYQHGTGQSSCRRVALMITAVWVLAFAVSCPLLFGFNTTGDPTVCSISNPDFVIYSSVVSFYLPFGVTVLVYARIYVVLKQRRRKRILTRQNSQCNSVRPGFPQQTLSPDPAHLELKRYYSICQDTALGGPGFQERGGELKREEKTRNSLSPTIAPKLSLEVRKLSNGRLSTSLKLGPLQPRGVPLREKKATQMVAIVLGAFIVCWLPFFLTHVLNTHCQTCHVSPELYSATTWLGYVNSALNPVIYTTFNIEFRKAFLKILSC

[11] = target: Beta-3 adrenergic receptor (Homo sapiens, UniProt P13945); test: Inhibition of adrenergic beta 3 receptor (unknown origin) assessed as binding constant
Sequence of Beta-3 adrenergic receptor (P13945 whole entry): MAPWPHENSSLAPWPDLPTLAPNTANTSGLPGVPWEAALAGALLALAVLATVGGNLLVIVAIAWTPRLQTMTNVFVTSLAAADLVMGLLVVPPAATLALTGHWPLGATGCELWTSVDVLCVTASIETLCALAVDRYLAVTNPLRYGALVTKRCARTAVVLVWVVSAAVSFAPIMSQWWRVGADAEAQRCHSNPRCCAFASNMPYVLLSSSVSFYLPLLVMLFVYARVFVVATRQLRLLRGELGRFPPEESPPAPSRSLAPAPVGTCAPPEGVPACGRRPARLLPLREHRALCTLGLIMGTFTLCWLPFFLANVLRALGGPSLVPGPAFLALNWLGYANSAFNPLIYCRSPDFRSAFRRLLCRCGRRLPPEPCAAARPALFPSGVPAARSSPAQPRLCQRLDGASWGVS

D(1B) dopamine receptor = D(1B) dopamine receptor (Homo sapiens, UniProt P21918); test: Inhibition of dopamine D5 receptor (unknown origin) assessed as binding constant
Sequence of D(1B) dopamine receptor (P21918 whole entry): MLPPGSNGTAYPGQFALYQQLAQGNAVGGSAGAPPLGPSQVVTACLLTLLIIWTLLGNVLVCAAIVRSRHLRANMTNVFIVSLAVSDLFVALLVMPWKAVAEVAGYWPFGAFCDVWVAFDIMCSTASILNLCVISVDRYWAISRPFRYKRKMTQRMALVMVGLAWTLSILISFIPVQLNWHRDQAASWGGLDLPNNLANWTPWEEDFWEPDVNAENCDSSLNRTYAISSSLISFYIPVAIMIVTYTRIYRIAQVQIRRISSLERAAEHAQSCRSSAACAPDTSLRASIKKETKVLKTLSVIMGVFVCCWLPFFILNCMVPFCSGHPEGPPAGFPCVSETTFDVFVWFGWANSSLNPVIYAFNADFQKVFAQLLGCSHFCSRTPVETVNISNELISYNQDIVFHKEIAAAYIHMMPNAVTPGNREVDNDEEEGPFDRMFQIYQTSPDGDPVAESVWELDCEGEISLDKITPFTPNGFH

[12] = target: Sodium-dependent serotonin transporter (Homo sapiens, UniProt P31645); test: Inhibition of SERT receptor (unknown origin) assessed as binding constant
Sequence of Sodium-dependent serotonin transporter (P31645 whole entry): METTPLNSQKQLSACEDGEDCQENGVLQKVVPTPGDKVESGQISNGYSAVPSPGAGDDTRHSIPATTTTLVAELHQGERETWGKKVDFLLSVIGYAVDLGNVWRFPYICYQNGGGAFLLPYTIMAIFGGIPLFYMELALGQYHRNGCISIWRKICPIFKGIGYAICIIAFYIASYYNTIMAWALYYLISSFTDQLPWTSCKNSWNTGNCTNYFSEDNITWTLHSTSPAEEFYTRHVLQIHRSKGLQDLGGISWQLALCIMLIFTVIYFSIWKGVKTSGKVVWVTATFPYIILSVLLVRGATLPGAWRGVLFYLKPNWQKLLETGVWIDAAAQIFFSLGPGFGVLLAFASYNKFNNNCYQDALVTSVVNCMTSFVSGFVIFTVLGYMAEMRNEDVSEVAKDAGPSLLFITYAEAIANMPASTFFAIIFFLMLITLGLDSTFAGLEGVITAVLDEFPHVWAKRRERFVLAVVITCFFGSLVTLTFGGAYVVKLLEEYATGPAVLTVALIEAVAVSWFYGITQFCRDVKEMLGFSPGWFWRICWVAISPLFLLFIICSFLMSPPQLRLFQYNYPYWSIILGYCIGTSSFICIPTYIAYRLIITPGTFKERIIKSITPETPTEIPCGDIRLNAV

[13] = target: T3, Muscarinic acetylcholine receptor M1 (Homo sapiens, UniProt P11229); test: Inhibition of muscarinic M1 receptor (unknown origin) assessed as binding constant
T3 sequence (P11229 whole entry): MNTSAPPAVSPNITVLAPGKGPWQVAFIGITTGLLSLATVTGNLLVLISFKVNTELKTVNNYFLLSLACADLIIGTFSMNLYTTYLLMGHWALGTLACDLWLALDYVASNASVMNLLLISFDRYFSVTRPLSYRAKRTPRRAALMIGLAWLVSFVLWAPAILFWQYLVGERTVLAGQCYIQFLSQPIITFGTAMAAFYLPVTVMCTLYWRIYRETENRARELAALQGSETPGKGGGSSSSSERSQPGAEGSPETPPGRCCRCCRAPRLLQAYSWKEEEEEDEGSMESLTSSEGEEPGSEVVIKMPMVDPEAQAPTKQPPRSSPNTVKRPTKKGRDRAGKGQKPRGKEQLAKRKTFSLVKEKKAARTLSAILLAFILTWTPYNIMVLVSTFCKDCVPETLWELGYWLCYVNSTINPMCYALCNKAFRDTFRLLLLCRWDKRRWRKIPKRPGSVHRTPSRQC

[14] = Stability of the compound in simulated gastric fluid assessed as parent compound remaining at 120 mins by NMR analysis; format: ADME; conditions: simulated gi fluid, 2 h
[15] = Half life in Wistar rat at 1 mg/kg, ip; format: ADME, organism-based; conditions: in vivo
[16] = Plasma protein binding in mouse assessed as bound fraction; format: ADME, cell-free
[17] = Stability in mouse liver microsomes assessed as half life; format: ADME, Microsome
[18] = Half life in Wistar rat at 0.5 mg/kg, iv; format: ADME, organism-based; conditions: in vivo
[19] = Stability in human liver microsomes assessed as half life; format: ADME, Microsome
[20] = Stability in rat plasma assessed as compound remaining after 120 mins; format: ADME, cell-free; conditions: 2 h
[21] = Aqueous solubility of the compound at pH 4; conditions: buffer
[22] = Stability of the compound in simulated intestinal fluid assessed as parent compound remaining at 120 mins; format: ADME; conditions: simulated gi fluid, 2 h
HepG2 = test: Cytotoxicity against human HepG2 cells; format: toxicity, cell-based
[23] = Toxicity in Hsd:ICR (CD-1) mouse at 10 micromol/kg, ip; conditions: in vivo, dose 10 µmol/kg
[24] = Plasma protein binding in rat assessed as bound fraction; format: ADME, cell-free
[25] = Stability in mouse plasma assessed as compound remaining after 120 mins; format: ADME, cell-free; conditions: 2 h
[26] = Stability in rat liver microsomes assessed as half life; format: ADME, Microsome
Mus musculus [27] = test: Antiinflammatory activity in C57BL/6J mouse model of ovalbumin/Aspergillus-induced allergic asthma assessed as reduction in neutrophil counts in BALF at 10 mg/kg, ip administered 30 mins prior to allergen challenge and measured after 16 days; format: functional, organism-based; conditions: time 16.0 day
Mus musculus [28] = test: Antiinflammatory activity in C57BL/6J mouse model of ovalbumin/Aspergillus-induced allergic asthma assessed as reduction in macrophage counts in BALF at 10 mg/kg, ip administered 30 mins prior to allergen challenge and measured after 16 days; format: functional, organism-based; conditions: time 16.0 day
Mus musculus [29] = test: Antiinflammatory activity in C57BL/6J mouse model of ovalbumin/Aspergillus-induced allergic asthma assessed as reduction in eosinophil counts in BALF at 10 mg/kg, ip administered 30 mins prior to allergen challenge and measured after 16 days; format: functional, organism-based; conditions: time 16.0 day
Mus musculus [30] = test: Reversal of CCI-induced mechano-allodynia in Hsd:ICR (CD-1) mouse model of neuropathic pain at 10 micromol/kg, ip measured after 3 hrs; format: functional, organism-based; conditions: dose 10.0 µmol/kg
Mus musculus [31] = test: Reversal of CCI-induced mechano-allodynia in Hsd:ICR (CD-1) mouse model of neuropathic pain at 10 micromol/kg, ip measured after 5 hrs; format: functional, organism-based; conditions: dose 10.0 µmol/kg
Mus musculus [32] = test: Antiinflammatory activity in C57BL/6J mouse model of ovalbumin/Aspergillus-induced allergic asthma assessed as reduction in allergic inflammation at 10 mg/kg, ip administered 30 mins prior to allergen challenge and measured after 16 days; format: functional, organism-based; conditions: time 16.0 day
Mus musculus [33] = test: Antiinflammatory activity in C57BL/6J mouse model of ovalbumin/Aspergillus-induced allergic asthma assessed as reduction in recruitment of immune cells into lungs at 10 mg/kg, ip administered 30 mins prior to allergen challenge and measured after 16 days; format: functional, organism-based; conditions: time 16.0 day
[34] = target: Kappa-type opioid receptor (Homo sapiens, UniProt P41145); test: Inhibition of KOR (unknown origin) assessed as binding constant
Sequence of Kappa-type opioid receptor (P41145 whole entry): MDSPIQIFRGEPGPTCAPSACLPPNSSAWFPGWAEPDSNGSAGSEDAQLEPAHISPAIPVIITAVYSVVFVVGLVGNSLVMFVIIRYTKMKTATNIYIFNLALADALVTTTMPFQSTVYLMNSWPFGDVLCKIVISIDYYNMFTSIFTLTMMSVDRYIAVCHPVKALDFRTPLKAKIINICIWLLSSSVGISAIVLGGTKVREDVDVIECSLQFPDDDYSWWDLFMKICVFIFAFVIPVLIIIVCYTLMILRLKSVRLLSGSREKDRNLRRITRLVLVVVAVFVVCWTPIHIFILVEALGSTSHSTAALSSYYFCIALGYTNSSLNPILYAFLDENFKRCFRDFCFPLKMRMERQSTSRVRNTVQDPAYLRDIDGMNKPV

Compound: CCOC(=O)N1C[C@H]2C[C@@H]1C[C@@H]2c1ccc(-c2cc(C(=O)OCC(=O)N(C)C)cc3cc(-c4ccc(C(F)(F)F)cc4)ccc23)cc1
- Activity (Mus musculus [1]): Active
- Drug metabolism [2]: 3%
- logD ([3]; read-out: logD): 6
- half-life (liver carboxylesterase): > 72 h
- Activity (Mus musculus [4]): Active
- Activity (Mus musculus [5]): Active

Compound: CN(C)C(=O)COC(=O)c1cc(-c2ccc([C@@H]3C[C@@H]4C[C@H]3NC4=O)cc2)c2ccc(-c3ccc(C(F)(F)F)cc3)cc2c1
- PPB [6]: 99.79%
- half-life (liver carboxylesterase): > 72 h
- Fu [7]: 0%
- Ki [8]: 6.9 µM
- Fu [9]: 0%

Compound: O=C(O)c1cc(-c2ccc([C@@H]3C[C@@H]4C[C@H]3CN4)cc2)c2ccc(-c3ccc(C(F)(F)F)cc3)cc2c1
- Ki (Translocator protein): 1.8 µM
- Ki [10]: 1.2 µM
- IC50 (P2Y purinoceptor 14): 0.0134 µM
- Ki (D(3) dopamine receptor): 1 µM
- Ki [8]: 2.1 µM
- Ki [11]: > 1 µM
- Ki (D(1B) dopamine receptor): > 1 µM

Compound: CN(C)C(=O)COC(=O)c1cc(-c2ccc([C@H]3C[C@H]4C[C@@H]3CN4)cc2)c2ccc(-c3ccc(C(F)(F)F)cc3)cc2c1
- Ki [10]: 0.39 µM
- Drug metabolism [2]: 59%
- PPB [6]: 99.7%
- half-life (liver carboxylesterase): > 72 h
- Fu [7]: 0.72%
- Ki [12]: > 1 µM
- Ki [13]: > 1 µM
- Fu [9]: 0%

Compound: O=C(O)c1cc(-c2ccc([C@H]3C[C@H]4C[C@@H]3CN4)cc2)c2ccc(-c3ccc(C(F)(F)F)cc3)cc2c1 [listing 1 of 2 here]
- Stability [14]: 100%
- half-life [15]: 8.94 h
- Ki [10]: 0.71 µM
- logD [3]: 1.9
- PPB [16]: 99.76%
- PPB [6]: 87.98%
- t1/2 [17]: 4.05 h
- half-life [18]: 7.24 h
- t1/2 [19]: 4.67 h
- Stability [20]: 82.8%
- solubility [21]: 1.22 µg/mL (≈ 2.5 µM)
- Stability [22]: 99.1%
- IC50 (HepG2): 11 µM
- Activity [23]: Non-Toxic
- PPB [24]: 99.79%
- Stability [25]: 100%
- t1/2 [26]: 1.52 h

Compound: N[C@H]1C[C@@H](CO)[C@H](c2ccc(-c3cc(C(=O)O)cc4cc(-c5ccc(C(F)(F)F)cc5)ccc34)cc2)C1
- Ki (Translocator protein): 1.8 µM
- Ki [10]: 1.1 µM
- logD ([3]; read-out: logD): 0.96
- Ki (D(3) dopamine receptor): 0.33 µM
- Ki [8]: 1.3 µM
- Ki [11]: > 1 µM

Compound: O=C(O)c1cc(-c2ccc([C@H]3C[C@H]4C[C@@H]3CN4)cc2)c2ccc(-c3ccc(C(F)(F)F)cc3)cc2c1 [listing 2 of 2 here]
- Activity (Mus musculus [27]): Active
- Activity (Mus musculus [28]): inactive
- Activity (Mus musculus [29]): Active
- Activity (Mus musculus [30]): Active
- Activity (Mus musculus [31]): inactive
- Activity (Mus musculus [32]): Active

Compound: O=C(O)c1cc(-c2ccc([C@@H]3C[C@@H]4C[C@H]3NC4=O)cc2)c2ccc(-c3ccc(C(F)(F)F)cc3)cc2c1
- Stability [14]: 59.3%
- half-life [15]: 4.59 h
- Ki [10]: 2.1 µM
- PPB [16]: 99.74%
- PPB [6]: 98.89%
- Activity (Mus musculus [33]): Active
- t1/2 [17]: > 16.67 h
- half-life [18]: 2.11 h
- t1/2 [19]: 12.5 h
- Stability [20]: 74.7%
- Stability [22]: 100%
- IC50 (HepG2): 9.34 µM
- PPB [24]: 96.18%
- Stability [25]: 74.1%
- t1/2 [26]: 1.49 h

Compound: O=C(O)c1cc(-c2ccc(C3CCNC3)cc2)c2ccc(-c3ccc(C(F)(F)F)cc3)cc2c1 (racemic)
- Ki [10]: 1.2 µM
- logD ([3]; read-out: logD): 1.9
- Ki [34]: > 1 µM
